Results: ChEMBL document CHEMBL1201861, “Genomics of Drug Sensitity in Cancer screening data, Wellcome Trust Sanger Institute”

Each compound was assayed on KP-N-YN (assay: cells). Settings: Homo sapiens.
Type: functional, cell-based
Description: SANGER: Inhibition of human KP-N-YN cell growth in a cell viability assay.

Question: With `CS(=O)(=O)N1CCN(Cc2cc3nc(-c4cccc5[nH]ncc45)nc(N4CCOCC4)c3s2)CC1` [PICTILISIB] as the compound, how does the IC50 read?
Answer: > 4000 nM

These compounds were tested on NB17 (assay: cells). Settings: Homo sapiens, NB17.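 Also: growth inhibition of NB17 cells, read out with a cell viability assay.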
Type: functional, cell-based, Homo sapiens
Description: SANGER: Inhibition of human NB17 cell growth in a cell viability assay.

Question: With `CS(=O)(=O)N1CCN(Cc2cc3nc(-c4cccc5[nH]ncc45)nc(N4CCOCC4)c3s2)CC1` [PICTILISIB] as the compound, how does the IC50 read?
Answer: > 4000 nM

What follows are compounds tested on NCI-H2228 (assay: cells). Settings: Homo sapiens.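 Also: growth inhibition of human NCI-H2228 cells, read out by a cell viability assay.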
Type: functional, cell-based
Description: SANGER: Inhibition of human NCI-H2228 cell growth in a cell viability assay.

Question: `CS(=O)(=O)N1CCN(Cc2cc3nc(-c4cccc5[nH]ncc45)nc(N4CCOCC4)c3s2)CC1` [PICTILISIB] was tested. Which IC50 did it give?
Answer: 1850 nM

What follows are compounds tested on CAKI-1 (assay: cells). Settings: Homo sapiens.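 Also: growth inhibition of CAKI-1 cells, measured by a cell viability assay.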
Type: functional, cell-based
Description: SANGER: Inhibition of human CAKI-1 cell growth in a cell viability assay.

Question: `CS(=O)(=O)N1CCN(Cc2cc3nc(-c4cccc5[nH]ncc45)nc(N4CCOCC4)c3s2)CC1` [PICTILISIB] was tested. Which IC50 did it give?
Answer: > 4000 nM

Each compound was assayed on SK-MES-1 (assay: cells). Settings: Homo sapiens.
Type: functional, cell-based
Description: SANGER: Inhibition of human SK-MES-1 cell growth in a cell viability assay.

Question: `CS(=O)(=O)N1CCN(Cc2cc3nc(-c4cccc5[nH]ncc45)nc(N4CCOCC4)c3s2)CC1` [PICTILISIB] was tested. Which IC50 did it give?
Answer: 2010 nM

The compounds below were run on TYK-nu (assay: cells). Settings: Homo sapiens.
Type: functional, cell-based
Description: SANGER: Inhibition of human TYK-nu cell growth in a cell viability assay.

Question: Which IC50 does the source give for `CS(=O)(=O)N1CCN(Cc2cc3nc(-c4cccc5[nH]ncc45)nc(N4CCOCC4)c3s2)CC1` [PICTILISIB] here?
Answer: 1960 nM

The compounds below were run on HCC38 (assay: cells). Settings: Homo sapiens.
Type: functional, cell-based
Description: SANGER: Inhibition of human HCC38 cell growth in a cell viability assay.

Question: Which IC50 does the source give for `CS(=O)(=O)N1CCN(Cc2cc3nc(-c4cccc5[nH]ncc45)nc(N4CCOCC4)c3s2)CC1` [PICTILISIB] here?
Answer: > 4000 nM

The compounds below were run on T98G (assay: cells). Settings: Homo sapiens.
Type: functional, cell-based
Description: SANGER: Inhibition of human T98G cell growth in a cell viability assay.

Question: With `CS(=O)(=O)N1CCN(Cc2cc3nc(-c4cccc5[nH]ncc45)nc(N4CCOCC4)c3s2)CC1` [PICTILISIB] as the compound, how does the IC50 read?
Answer: 1990 nM

These compounds were tested on LK-2 (assay: cells). Settings: Homo sapiens.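 Also: growth inhibition of LK-2 cells, read out with a viability assay.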
Type: functional, cell-based
Description: SANGER: Inhibition of human LK-2 cell growth in a cell viability assay.

Question: With `CS(=O)(=O)N1CCN(Cc2cc3nc(-c4cccc5[nH]ncc45)nc(N4CCOCC4)c3s2)CC1` [PICTILISIB] as the compound, how does the IC50 read?
Answer: > 4000 nM

These compounds were tested on Daoy (assay: cells). Settings: Homo sapiens.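 Also: daoy cell growth inhibition, read out as cell viability.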
Type: functional, cell-based
Description: SANGER: Inhibition of human Daoy cell growth in a cell viability assay.

Question: How did the IC50 turn out when `CS(=O)(=O)N1CCN(Cc2cc3nc(-c4cccc5[nH]ncc45)nc(N4CCOCC4)c3s2)CC1` [PICTILISIB] was run?
Answer: > 4000 nM

These compounds were tested on T84 (assay: cells). Settings: Homo sapiens.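 Also: growth inhibition measured with a cell viability readout.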
Type: functional, cell-based
Description: SANGER: Inhibition of human T84 cell growth in a cell viability assay.

Question: For `CS(=O)(=O)N1CCN(Cc2cc3nc(-c4cccc5[nH]ncc45)nc(N4CCOCC4)c3s2)CC1` [PICTILISIB], which IC50 is on record?
Answer: > 4000 nM

These compounds were tested on BFTC-909 (assay: cells). Settings: Homo sapiens.
Type: functional, cell-based
Description: SANGER: Inhibition of human BFTC-909 cell growth in a cell viability assay.

Question: For `CS(=O)(=O)N1CCN(Cc2cc3nc(-c4cccc5[nH]ncc45)nc(N4CCOCC4)c3s2)CC1` [PICTILISIB], which IC50 is on record?
Answer: 1430 nM

These compounds were tested on ACHN (assay: cells). Settings: Homo sapiens.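 Also: cell viability read-out used to gauge how strongly growth of human ACHN cells is suppressed.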
Type: functional, cell-based
Description: SANGER: Inhibition of human ACHN cell growth in a cell viability assay.

Question: For `CS(=O)(=O)N1CCN(Cc2cc3nc(-c4cccc5[nH]ncc45)nc(N4CCOCC4)c3s2)CC1` [PICTILISIB], which IC50 is on record?
Answer: > 4000 nM

The compounds below were run on NCI-H2052 (assay: cells). Settings: Homo sapiens.
Type: functional, cell-based
Description: SANGER: Inhibition of human NCI-H2052 cell growth in a cell viability assay.

Question: How did the IC50 turn out when `CS(=O)(=O)N1CCN(Cc2cc3nc(-c4cccc5[nH]ncc45)nc(N4CCOCC4)c3s2)CC1` [PICTILISIB] was run?
Answer: > 4000 nM

What follows are compounds tested on PFSK-1 (assay: cells). Settings: Homo sapiens.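 Also: cell viability assay measuring how strongly compounds suppress growth of human PFSK-1 cells.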
Type: functional, cell-based
Description: SANGER: Inhibition of human PFSK-1 cell growth in a cell viability assay.

Question: For `CS(=O)(=O)N1CCN(Cc2cc3nc(-c4cccc5[nH]ncc45)nc(N4CCOCC4)c3s2)CC1` [PICTILISIB], which IC50 is on record?
Answer: 1940 nM

The compounds below were run on HT-3 (assay: cells). Settings: Homo sapiens.
Type: functional, cell-based
Description: SANGER: Inhibition of human HT-3 cell growth in a cell viability assay.

Question: How did the IC50 turn out when `CS(=O)(=O)N1CCN(Cc2cc3nc(-c4cccc5[nH]ncc45)nc(N4CCOCC4)c3s2)CC1` [PICTILISIB] was run?
Answer: 2490 nM

These compounds were tested on CaR-1 (assay: cells). Settings: Homo sapiens.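 Also: growth inhibition of human CaR-1 cancer cells, read out with a cell viability assay.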
Type: functional, cell-based
Description: SANGER: Inhibition of human CaR-1 cell growth in a cell viability assay.

Question: How did the IC50 turn out when `CS(=O)(=O)N1CCN(Cc2cc3nc(-c4cccc5[nH]ncc45)nc(N4CCOCC4)c3s2)CC1` [PICTILISIB] was run?
Answer: > 4000 nM

What follows are compounds tested on HCC1806 (assay: cells). Settings: Homo sapiens.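 Also: growth inhibition of the cancer cell line, determined with a cell viability assay.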
Type: functional, cell-based
Description: SANGER: Inhibition of human HCC1806 cell growth in a cell viability assay.

Question: How did the IC50 turn out when `CS(=O)(=O)N1CCN(Cc2cc3nc(-c4cccc5[nH]ncc45)nc(N4CCOCC4)c3s2)CC1` [PICTILISIB] was run?
Answer: > 4000 nM

The compounds below were run on SCC-4 (assay: cells). Settings: Homo sapiens.
Type: functional, cell-based
Description: SANGER: Inhibition of human SCC-4 cell growth in a cell viability assay.

Question: Which IC50 does the source give for `CS(=O)(=O)N1CCN(Cc2cc3nc(-c4cccc5[nH]ncc45)nc(N4CCOCC4)c3s2)CC1` [PICTILISIB] here?
Answer: > 4000 nM

The compounds below were run on A2058 (assay: cells). Settings: Homo sapiens.
Type: functional, cell-based
Description: SANGER: Inhibition of human A2058 cell growth in a cell viability assay.

Question: With `CS(=O)(=O)N1CCN(Cc2cc3nc(-c4cccc5[nH]ncc45)nc(N4CCOCC4)c3s2)CC1` [PICTILISIB] as the compound, how does the IC50 read?
Answer: > 4000 nM

The compounds below were run on HOS (assay: cells). Settings: Homo sapiens.
Type: functional, cell-based
Description: SANGER: Inhibition of human HOS cell growth in a cell viability assay.

Question: How did the IC50 turn out when `CS(=O)(=O)N1CCN(Cc2cc3nc(-c4cccc5[nH]ncc45)nc(N4CCOCC4)c3s2)CC1` [PICTILISIB] was run?
Answer: 1980 nM

These compounds were tested on M059J (assay: cells). Settings: Homo sapiens.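 Also: growth inhibition of M059J cells, read out with a cell viability assay.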
Type: functional, cell-based
Description: SANGER: Inhibition of human M059J cell growth in a cell viability assay.

Question: Which IC50 does the source give for `CS(=O)(=O)N1CCN(Cc2cc3nc(-c4cccc5[nH]ncc45)nc(N4CCOCC4)c3s2)CC1` [PICTILISIB] here?
Answer: > 4000 nM

The compounds below were run on KU-19-19 (assay: cells). Settings: Homo sapiens.
Type: functional, cell-based
Description: SANGER: Inhibition of human KU-19-19 cell growth in a cell viability assay.

Question: Which IC50 does the source give for `CS(=O)(=O)N1CCN(Cc2cc3nc(-c4cccc5[nH]ncc45)nc(N4CCOCC4)c3s2)CC1` [PICTILISIB] here?
Answer: 516 nM

These compounds were tested on MDA-MB-453 (assay: cells). Settings: Homo sapiens.
Type: functional, cell-based
Description: SANGER: Inhibition of human MDA-MB-453 cell growth in a cell viability assay.

Question: With `CS(=O)(=O)N1CCN(Cc2cc3nc(-c4cccc5[nH]ncc45)nc(N4CCOCC4)c3s2)CC1` [PICTILISIB] as the compound, how does the IC50 read?
Answer: > 4000 nM

Each compound was assayed on Capan-2 (assay: cells). Settings: Homo sapiens.
Type: functional, cell-based
Description: SANGER: Inhibition of human Capan-2 cell growth in a cell viability assay.

Question: For `CS(=O)(=O)N1CCN(Cc2cc3nc(-c4cccc5[nH]ncc45)nc(N4CCOCC4)c3s2)CC1` [PICTILISIB], which IC50 is on record?
Answer: > 4000 nM

These compounds were tested on BHY (assay: cells). Settings: Homo sapiens.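 Also: cell growth inhibition read out by a viability assay.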
Type: functional, cell-based
Description: SANGER: Inhibition of human BHY cell growth in a cell viability assay.

Question: For `CS(=O)(=O)N1CCN(Cc2cc3nc(-c4cccc5[nH]ncc45)nc(N4CCOCC4)c3s2)CC1` [PICTILISIB], which IC50 is on record?
Answer: 3260 nM

Each compound was assayed on KYSE-70 cell line (assay: cells). Settings: Homo sapiens.
Type: functional, cell-based
Description: SANGER: Inhibition of human KYSE-70 cell growth in a cell viability assay.

Question: `CS(=O)(=O)N1CCN(Cc2cc3nc(-c4cccc5[nH]ncc45)nc(N4CCOCC4)c3s2)CC1` [PICTILISIB] was tested. Which IC50 did it give?
Answer: > 4000 nM

The compounds below were run on NCI-H2170 (assay: cells). Settings: Homo sapiens.
Type: functional, cell-based
Description: SANGER: Inhibition of human NCI-H2170 cell growth in a cell viability assay.

Question: With `CS(=O)(=O)N1CCN(Cc2cc3nc(-c4cccc5[nH]ncc45)nc(N4CCOCC4)c3s2)CC1` [PICTILISIB] as the compound, how does the IC50 read?
Answer: > 4000 nM

What follows are compounds tested on NB7 (assay: cells). Settings: Homo sapiens, NB7.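 Also: growth inhibition of NB7 cells, read out with a cell viability assay.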
Type: functional, cell-based, Homo sapiens
Description: SANGER: Inhibition of human NB7 cell growth in a cell viability assay.

Question: Which IC50 does the source give for `CS(=O)(=O)N1CCN(Cc2cc3nc(-c4cccc5[nH]ncc45)nc(N4CCOCC4)c3s2)CC1` [PICTILISIB] here?
Answer: 390 nM

Each compound was assayed on HCC70 (assay: cells). Settings: Homo sapiens.
Type: functional, cell-based
Description: SANGER: Inhibition of human HCC70 cell growth in a cell viability assay.

Question: How did the IC50 turn out when `CS(=O)(=O)N1CCN(Cc2cc3nc(-c4cccc5[nH]ncc45)nc(N4CCOCC4)c3s2)CC1` [PICTILISIB] was run?
Answer: 2870 nM

Each compound was assayed on RT-112 (assay: cells). Settings: Homo sapiens.
Type: functional, cell-based
Description: SANGER: Inhibition of human RT-112 cell growth in a cell viability assay.

Question: With `CS(=O)(=O)N1CCN(Cc2cc3nc(-c4cccc5[nH]ncc45)nc(N4CCOCC4)c3s2)CC1` [PICTILISIB] as the compound, how does the IC50 read?
Answer: > 4000 nM

These compounds were tested on Ca9-22 (assay: cells). Settings: Homo sapiens.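 Also: growth inhibition of Ca9-22 cells, read out with a cell viability assay.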
Type: functional, cell-based
Description: SANGER: Inhibition of human Ca9-22 cell growth in a cell viability assay.

Question: Which IC50 does the source give for `CS(=O)(=O)N1CCN(Cc2cc3nc(-c4cccc5[nH]ncc45)nc(N4CCOCC4)c3s2)CC1` [PICTILISIB] here?
Answer: > 4000 nM

What follows are compounds tested on SW1417 (assay: cells). Settings: Homo sapiens.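 Also: growth inhibition of human SW1417 cells, read out with a cell viability assay.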
Type: functional, cell-based
Description: SANGER: Inhibition of human SW1417 cell growth in a cell viability assay.

Question: `CS(=O)(=O)N1CCN(Cc2cc3nc(-c4cccc5[nH]ncc45)nc(N4CCOCC4)c3s2)CC1` [PICTILISIB] was tested. Which IC50 did it give?
Answer: > 4000 nM

What follows are compounds tested on HEC-1 (assay: cells). Settings: Homo sapiens.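 Also: growth inhibition of the cell line, read out with a cell viability assay.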
Type: functional, cell-based
Description: SANGER: Inhibition of human HEC-1 cell growth in a cell viability assay.

Question: With `CS(=O)(=O)N1CCN(Cc2cc3nc(-c4cccc5[nH]ncc45)nc(N4CCOCC4)c3s2)CC1` [PICTILISIB] as the compound, how does the IC50 read?
Answer: > 4000 nM

What follows are compounds tested on HT-1376 (assay: cells). Settings: Homo sapiens.
Type: functional, cell-based
Description: SANGER: Inhibition of human HT-1376 cell growth in a cell viability assay.

Question: For `CS(=O)(=O)N1CCN(Cc2cc3nc(-c4cccc5[nH]ncc45)nc(N4CCOCC4)c3s2)CC1` [PICTILISIB], which IC50 is on record?
Answer: > 4000 nM

These compounds were tested on H4 (assay: cells). Settings: Homo sapiens.
Type: functional, cell-based
Description: SANGER: Inhibition of human H4 cell growth in a cell viability assay.

Question: Which IC50 does the source give for `CS(=O)(=O)N1CCN(Cc2cc3nc(-c4cccc5[nH]ncc45)nc(N4CCOCC4)c3s2)CC1` [PICTILISIB] here?
Answer: 851 nM

These compounds were tested on HOP-92 (assay: cells). Settings: Homo sapiens.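 Also: cell viability readout, with IC50 reflecting inhibition of HOP-92 cell growth.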
Type: functional, cell-based
Description: SANGER: Inhibition of human HOP-92 cell growth in a cell viability assay.

Question: `CS(=O)(=O)N1CCN(Cc2cc3nc(-c4cccc5[nH]ncc45)nc(N4CCOCC4)c3s2)CC1` [PICTILISIB] was tested. Which IC50 did it give?
Answer: 2750 nM

The compounds below were run on HuO-3N1 (assay: cells). Settings: Homo sapiens.
Type: functional, cell-based
Description: SANGER: Inhibition of human HuO-3N1 cell growth in a cell viability assay.

Question: `CS(=O)(=O)N1CCN(Cc2cc3nc(-c4cccc5[nH]ncc45)nc(N4CCOCC4)c3s2)CC1` [PICTILISIB] was tested. Which IC50 did it give?
Answer: 642 nM

These compounds were tested on PC-3 (assay: cells). Settings: Homo sapiens.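 Also: cell viability assay measuring growth inhibition of PC-3 cells.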
Type: functional, cell-based
Description: SANGER: Inhibition of human PC-3 cell growth in a cell viability assay.

Question: With `CS(=O)(=O)N1CCN(Cc2cc3nc(-c4cccc5[nH]ncc45)nc(N4CCOCC4)c3s2)CC1` [PICTILISIB] as the compound, how does the IC50 read?
Answer: > 4000 nM
